In patent US9765074B2, “Inhibitors of the renal outer medullary potassium channel” (Merck Sharp & Dohme Corp., priority 2013, dated 2017):

Molecular target: T1, hROMK (hKir1.1) (Homo sapiens, UniProt P48048)
T1 construct: expressed in transfected cells
T1 sequence (P48048 1-391): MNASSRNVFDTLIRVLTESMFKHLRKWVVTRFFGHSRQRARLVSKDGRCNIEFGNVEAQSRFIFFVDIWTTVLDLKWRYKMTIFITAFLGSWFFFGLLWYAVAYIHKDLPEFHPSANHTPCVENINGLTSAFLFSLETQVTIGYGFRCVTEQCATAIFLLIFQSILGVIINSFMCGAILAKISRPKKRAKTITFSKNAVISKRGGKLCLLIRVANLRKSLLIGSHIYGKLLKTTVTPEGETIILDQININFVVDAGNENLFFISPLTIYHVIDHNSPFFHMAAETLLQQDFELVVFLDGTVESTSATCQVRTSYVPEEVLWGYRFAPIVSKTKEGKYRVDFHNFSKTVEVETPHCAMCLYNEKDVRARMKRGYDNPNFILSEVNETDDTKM
Assay: Thallium Flux Assay (ROMK channel functional thallium flux, FLIPR-Tetra)
Type: cell-based
Details: HEK293 cells stably expressing hROMK (hKir1.1); 30 min compound incubation
Procedure: The following Thallium Flux Assay was performed on each of the final product compounds in the Examples.
Cell Culture Conditions—HEK293 cells stably expressing hROMK (hKir1.1) were grown at 37° C. in a 10% CO2 humidified incubator in complete growth media: Dulbecco's Modified Eagle Medium supplemented with non-essential amino acids, Penicillin/Streptomycin/Glutamine, G418 and FBS. At >80% confluency, aspirate the media from the flask and rinse with 10 mL Calcium/Magnesium-free PBS. Add 5 mL of 1× trypsin (prepared in Ca/Mg Free PBS) to T-225 flask and return flask to 37° C./CO2 incubator for 2-3 minutes. To dislodge the cell, gently bang the side of the flask with your hand. Triturate the cells completely and then transfer the cells to 25 mL complete media. Centrifuge at 1,500 rpm for 6 min followed by resuspension in complete growth media and determine cell concentration. For typical re-seeding, 4E6 cells/T-225 flask will attain >80% confluency in 4 days. Under ideal growth conditions and appropriate tissue culture practices, this cell line is stable for 40-45 passages. FluxOR Kit Components (Invitrogen F10017) • FluxOR™ Reagent (Component A) • FluxOR™ Assay Buffer (Component B)—10× Concentrate • PowerLoad™ Concentrate (Component C)—100× Concentrate • Probenecid (Component D)—Lyophilized sample is kept at −20° C. Water soluble, 100× after solubilization in 1 mL water. Store at 4° C. • FluxOR™ Chloride-free Buffer (Component E)—5× Concentrate • Potassium sulfate (K2SO4) Concentrate (Component F)—125 mM in water. Store at 4° C. • Thallium sulfate (Tl2SO4) Concentrate (Component G)—50 mM in water. Store at 4° C. • DMSO (dimethyl sulfoxide, Component H)—1 mL (100%) Reagent Preparation: FluxOR Working Solutions • 1000× FluxOR™ Reagent: Reconstitute a vial of component A in 100 μl DMSO; Mix well; Store 10 μl aliquots at −20° C. • 1× FluxOR™ Assay Buffer: Dilute Component B 10-fold with water; Adjust pH to 7.4 with Hepes/NaOH; Filter and store at 4° C. • Probenecid/Assay Buffer: 100 mL of 1× FluxOR™ Assay Buffer; 1 mL of reconstituted component D; Store at 4° C. • Loading Buffer (per microplate): 10 μl 1000× FluxOR™ Reagent; 100 μl component C; 10 mL Probenecid/Assay Buffer • Compound Buffer (per microplate): 20 mL Probenecid/Assay Buffer; 0.3 mM ouabain (10 mM ouabain in water can be stored in amber bottle/aluminum foil at room temperature); Test compound • 1× FluxOR™ Chloride-Free Buffer: Prepare 1× working solution in water. Can be stored at room temperature • Stimulant Buffer (prepared at 5× final concentration in 1× FluxOR™ Chloride-Free Buffer): 7.5 mM Thallium sulfate and 0.75 mM Potassium sulfate (to give a final assay concentration of 3 mM Thallium/0.3 mM Potassium). Store at 4° C. when not in use. If kept sterile, this solution is good for months. Assay Protocol—The ROMK channel functional thallium flux assay is performed in 384 wells, using the FLIPR-Tetra instrument. HEK-hKir1.1 cells are seeded in Poly-D-Lysine microplates and kept in a 37° C.-10% CO2 incubator overnight. On the day of the experiment, the growth media is replaced with the FluxOR™ reagent loading buffer and incubated, protected from light, at ambient temperature (23-25° C.) for 90 min. The loading buffer is replaced with assay buffer±test compound followed by 30 min incubation at ambient temperature, where the Thallium/Potassium stimulant is added to the microplate. Step Protocol • 1. Seed HEK-hKir1.1 cells (50 μl at 20,000 cells/well) in 384-well PDL coated Microplates • 2. Allow cells to adhere overnight in humidified 37° C./10% CO2 incubator • 3. Completely remove cell growth media from microplate and replace with 25 μl loading buffer • 4. Incubate Microplate at room temperature, protected form light, for 90 min • 5. Remove loading buffer and replace with 25 μl 1× Assay Buffer±test compound. • 6. Incubate microplate at room temperature, protected from light, for 30 min • 7. At FLIPR-Tetra 384: Add stimulant (Thallium/Potassium) solution to microplate and monitor fluorescence. […]

| SMILES | IC50 |
| --- | --- |
| O=C1C=C(N2C(=O)C3(CCN(C[C@H](O)c4ccc(-n5cnnn5)cn4)CC3)CC2C2CC2)CO1 (mixture of isomers) [Example 222, 3-cyclopropyl-8-{(2S)-2-hydroxy-2-[5-(1H-tetrazol-1-yl)pyridin-2-yl]ethyl}-2-(5-oxo-2,5-dihydrofuran-3-yl)-2,8-diazaspiro[4.5]decan-1-one] | 100 nM |
| O=C1C=C(N2C(=O)C3(CCN(C[C@H](O)c4ccc(-n5cnnn5)cn4)CC3)CC2C2CC2)CO1 (mixture of isomers) [Example 223, 3-cyclopropyl-8-{(2S)-2-hydroxy-2-[5-(1H-tetrazol-1-yl)pyridin-2-yl]ethyl}-2-(5-oxo-2,5-dihydrofuran-3-yl)-2,8-diazaspiro[4.5]decan-1-one] | 50 nM |
| CC1=C(N2CC[C@]3(CCN(C[C@H](O)c4cnc(-n5cnnn5)cn4)CC3F)C2=O)COC1=O (mixture of isomers) [Example 224, 6-fluoro-8-{(2S)-2-hydroxy-2-[5-(1H-tetrazol-1-yl)pyrazin-2-yl]ethyl}-2-(4-methyl-5-oxo-2,5-dihydrofuran-3-yl)-1-oxo-2-aza-8-azoniaspiro[4.5]decane] | 110 nM |
| CC1=C(N2CC[C@@]3(CCN(C[C@H](O)c4cnc(-n5cnnn5)cn4)CC3F)C2=O)COC1=O (mixture of isomers) [Example 225, 6-fluoro-8-{(2S)-2-hydroxy-2-[5-(1H-tetrazol-1-yl)pyrazin-2-yl]ethyl}-2-(4-methyl-5-oxo-2,5-dihydrofuran-3-yl)-1-oxo-2-aza-8-azoniaspiro[4.5]decane] | 150 nM |
| CC1CC2(CC3CCC(C2)N3C[C@H](O)c2cnc(-n3cnnn3)cn2)C(=O)N1C1=CC(=O)OC1 (single isomer, unassigned) [Example 89] | 30 nM |
| CC1CC2(CC3CCC(C2)N3C[C@@H](O)c2cnc(-n3cnnn3)cn2)C(=O)N1C1=CC(=O)OC1 (single isomer, unassigned) [Example 90] | 40 nM |
| CC1CC2(CC3CCC(C2)N3C[C@H](O)c2cnc(-n3cnnn3)cn2)C(=O)N1C1=CC(=O)OC1 (single isomer, unassigned) [Example 91] | 30 nM |
| CC1CC2(CC3CCC(C2)N3C[C@@H](O)c2cnc(-n3cnnn3)cn2)C(=O)N1C1=CC(=O)OC1 (single isomer, unassigned) [Example 92] | 20 nM |
| CC1CC2(CC3CCC(C2)N3C[C@H](O)c2ccc(-n3cnnn3)nc2)C(=O)N1C1=CC(=O)OC1 (single isomer, unassigned) [Example 100] | 10 nM |
| CC1CC2(CC3CCC(C2)N3C[C@@H](O)c2ccc(-n3cnnn3)nc2)C(=O)N1C1=CC(=O)OC1 (single isomer, unassigned) [Example 101] | 6 nM |
| CC1CC2(CC3CCC(C2)N3C[C@H](O)c2ccc(-n3cnnn3)nc2)C(=O)N1C1=CC(=O)OC1 (single isomer, unassigned) [Example 102] | 10 nM |
| CC1CC2(CC3CCC(C2)N3C[C@@H](O)c2ccc(-n3cnnn3)nc2)C(=O)N1C1=CC(=O)OC1 (single isomer, unassigned) [Example 103] | 10 nM |
| CC1=C(N2CC(O)C3(CC4CCC(C3)N4C[C@H](O)c3ccc(-n4cnnn4)nc3)C2=O)COC1=O (single isomer, unassigned) [Example 104] | 120 nM |
| CC1=C(N2CC(O)C3(CC4CCC(C3)N4C[C@@H](O)c3ccc(-n4cnnn4)nc3)C2=O)COC1=O (single isomer, unassigned) [Example 105] | 130 nM |
| CC1=C(N2CC(O)C3(CC4CCC(C3)N4C[C@H](O)c3ccc(-n4cnnn4)nc3)C2=O)COC1=O (single isomer, unassigned) [Example 106] | 60 nM |

Further lines, results first:

| IC50 | SMILES |
| --- | --- |
| 30 nM | CCC1CC2(CCN(C[C@H](O)c3cnc(-n4cnnn4)cn3)CC2)C(=O)N1C1=CC(=O)OC1 (mixture of isomers) [Example 221, 3-ethyl-8-{(2S)-2-hydroxy-2-[5-(1H-tetrazol-1-yl)pyrazin-2-yl]ethyl}-2-(5-oxo-2,5-dihydrofuran-3-yl)-2,8-diazaspiro[4.5]decan-1-one] |
| 330 nM | CC1OC(=O)C=C1N1CCC2(CCN(C[C@H](O)c3ccc(-n4cnnn4)nc3)CC2)C1=O (mixture of isomers) [Example 226, 8-((R)-2-(6-(1H-tetrazol-1-yl)pyridin-3-yl)-2-hydroxyethyl)-2-(2-methyl-5-oxo-2,5-dihydrofuran-3-yl)-2,8-diazaspiro[4.5]decan-1-one] |
| 180 nM | CC1OC(=O)C=C1N1CCC2(CCN(C[C@H](O)c3ccc(-n4cnnn4)nc3)CC2)C1=O (mixture of isomers) [Example 227, 8-((R)-2-(6-(1H-tetrazol-1-yl)pyridin-3-yl)-2-hydroxyethyl)-2-(2-methyl-5-oxo-2,5-dihydrofuran-3-yl)-2,8-diazaspiro[4.5]decan-1-one] |
| 30 nM | CC1=C(N2C(=O)C3(CCN(CCc4ccc(-n5cnnn5)nn4)CC3)CC2C)COC1=O (racemic) [Example 240, 3-methyl-2-(4-methyl-5-oxo-2,5-dihydrofuran-3-yl)-1-oxo-8-{2-[6-(1H-tetrazol-1-yl)pyridazin-3-yl]ethyl}-2-aza-8-azoniaspiro[4.5]decane] |
| 20 nM | CC1=C(N2C(=O)C3(CCN(CCc4ccc(-n5cnnn5)nn4)CC3)CC2C)COC1=O (racemic) [Example 241, 3-methyl-2-(4-methyl-5-oxo-2,5-dihydrofuran-3-yl)-1-oxo-8-{2-[6-(1H-tetrazol-1-yl)pyridazin-3-yl]ethyl}-2-aza-8-azoniaspiro[4.5]decane] |
| 50 nM | O=C1C=C(N2CCC3(CCN(C[C@@H](O)c4ccc(-n5cnnn5)nc4)CC3)C2=O)CO1 (single isomer, unassigned) [Example 2] |
| 40 nM | CC1=C(N2C(=O)C3(CCN(C[C@@H](O)c4ccc(-n5cnnn5)nc4)CC3)CC2C)COC1=O (single isomer, unassigned) [Example 63] |
| 50 nM | CC1=C(N2C(=O)C3(CCN(C[C@@H](O)c4ccc(-n5cnnn5)nc4)CC3)CC2C)COC1=O (single isomer, unassigned) [Example 64] |
| 10 nM | CC1=C(N2C(=O)C3(CCN(C[C@H](O)c4ccc(-n5cnnn5)nc4)CC3)CC2C)COC1=O (single isomer, unassigned) [Example 65] |
| 10 nM | CC1=C(N2C(=O)C3(CCN(C[C@H](O)c4ccc(-n5cnnn5)nc4)CC3)CC2C)COC1=O (single isomer, unassigned) [Example 66] |
| 170 nM | CC1=C(N2C(=O)C3(CCN(C[C@H](O)c4cnc(-n5cnnn5)cn4)CC3)CC2C)COC1=O (single isomer, unassigned) [Example 67] |
| 230 nM | CC1=C(N2C(=O)C3(CCN(C[C@@H](O)c4cnc(-n5cnnn5)cn4)CC3)CC2C)COC1=O (single isomer, unassigned) [Example 68] |
